{
  "source": "ChEMBL document CHEMBL1151597",
  "about": "“THE ROLE OF ARGININE IN THE BINDING OF LTD4 ANTAGONISTS TO cysLT1 RECEPTORS OF GUINEA PIG LUNG” (Bioorg Med Chem Lett, 1997)",
  "biological_target": "T1, Cysteinyl leukotriene receptor 1 (Cavia porcellus, UniProt Q2NNR5)",
  "T1 sequence (Q2NNR5 whole entry)": "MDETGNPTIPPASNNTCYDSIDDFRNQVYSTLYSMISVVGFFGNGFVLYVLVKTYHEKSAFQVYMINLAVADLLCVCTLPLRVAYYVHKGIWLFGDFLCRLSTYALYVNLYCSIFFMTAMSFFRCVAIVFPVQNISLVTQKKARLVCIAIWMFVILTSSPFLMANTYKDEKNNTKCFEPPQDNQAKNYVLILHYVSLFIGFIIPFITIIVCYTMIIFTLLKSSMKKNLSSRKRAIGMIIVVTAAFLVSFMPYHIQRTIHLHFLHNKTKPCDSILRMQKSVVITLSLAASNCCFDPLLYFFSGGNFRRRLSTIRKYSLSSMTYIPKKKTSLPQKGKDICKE",
  "assay": "Dissociation constant for CysLT1 receptor was determined by the displacement of [3H]LTD4 from guinea pig lung membranes",
  "assay_type": "tissue-based, Membrane",
  "data": [
    {"smiles": "COc1cc(C(=O)NS(=O)(=O)c2ccccc2)ccc1Cn1ncc2ccc(NC(=O)OC3CCCC3)cc21", "note": "[ICI-198615]", "values": [
      {"measurement": "Kd", "result": 0.0000301, "unit": "M l-1"}
    ]}
  ]
}
